For experiment [1], the system named is normal Vero cell line. Nature of the experiment: Sulphorhodamine B (SRB) assay on normal Vero cell line. To be noted: Chlorocebus sabaeus, 48 h. (In SRB staining, fixed cells bind dye roughly in proportion to their protein.)
Experiment [2] deals with VEGF-B. The experiment can be described thus: Serum VEGF-B by ELISA in EAC-bearing mice. The format is in vivo, Swiss albino female mice. To be noted: day 21, extract 200 mg/kg PO, compounds 50 mg/kg PO, days 7-21, vs control EAC. Here is the method: (§1) Swiss albino female mice obtained from the Egyptian Organization for Biological Products and Vaccines (Vacsera, Egypt), and weighing 25–30 g were used. The mice were kept in plastic cages with mesh floor and hardwood bedding at 25 °C temperature under normal light/dark cycle, with water and food provided ad libitum. Mice were left to acclimatize for 1 week before the experiments. They were randomly divided into nine groups (7 mice each). The first group served as the normal group and received saline. EAC cells were inoculated in all other groups. Group 2 was considered the EAC control. Group 3 received (200 mg/kg) of P. undulata extract PO three times weekly. Groups (4–9) received (50 mg/kg) of Xanthoxyline, Oleanolic acid, Stigmasterol, Salvigenin, Rhamnetin and Dihydroquercetin 4′-methyl ether, respectively, PO three times daily. All compounds were dissolved in saline.
(§2) The day of tumor inoculation was considered as day zero (0). Treatment of groups (3–9) started at the 7th day after tumor inoculation, and continued for 2 weeks until day 21. The in vivo study was in accordance with the Guide for the Care and Use of Laboratory animals. The study protocol was approved by the ethical committee of Faculty of Pharmacy, Suez Canal University (code of approval 20201907RA2)
On the 21st day of EAC cells inoculation, blood samples were collected under light ether anesthesia from the orbital sinus (retro-orbital plexus). The blood samples were left to clot for 20 min followed by separation of the serum by centrifugation at 4000 rpm for 15 min. Mice were sacrificed by cervical dislocation and tumor discs were separated, weighed and fixed in 10% neutral buffered formalin for immunohistochemical investigations.
Serum samples were stored at (−20 °C) and used for determination of the level of VEGF-B by ELISA kit (ab213897) (Abcam, Cambridge, UK) according to the manufacturer’s protocol.
(In general: In an ELISA, binding on a coated surface is turned into a signal by an enzyme label.)

The subject of experiment [3] is breast cancer cell line (MCF-7). Nature of the experiment: Sulphorhodamine B (SRB) antiproliferative assay on MCF-7. To be noted: Homo sapiens, MCF7, 48 h.
Method: The potential cytotoxic activities of the P. undulata extract and isolated compounds against breast cancer cell line (MCF-7) were evaluated using a Sulphorhodamine-B (SRB) assay.
The subject of experiment [4] is CD34. The experiment can be described thus: Immunohistochemistry of CD34 expression in EAC tumor tissue. To be noted: day 21, extract 200 mg/kg PO, compounds 50 mg/kg PO, vs control EAC. The class given is in vivo, Swiss albino female mice. The procedure: as §1, §2
On the 21st day of EAC cells inoculation, blood samples were collected under light ether anesthesia from the orbital sinus (retro-orbital plexus). The blood samples were left to clot for 20 min followed by separation of the serum by centrifugation at 4000 rpm for 15 min. […]
(§3) For immunohistochemical examination, the tumor discs were fixed in 10% neutral buffered formalin overnight and then embedded in paraffin. When analyzed, all paraffin-embedded tissues were sectioned at 4-μm, deparaffinized in xylene, and hydrated through graded ethyl alcohol series in decreasing concentrations (100%, 90%, 80% and 70%). […] The expression of VEGFR-2 and CD34 were assessed and percentage of stained area was measured.

Experiment [5] has as its system VEGFR-2. The experiment can be described thus: Immunohistochemistry of VEGFR-2 expression in EAC tumor tissue. The class given is in vivo, Swiss albino female mice. To be noted: day 21, extract 200 mg/kg PO, compounds 50 mg/kg PO, vs control EAC. The procedure: as §1
The day of tumor inoculation was considered as day zero (0). […]
as §3

The subject of experiment [6] is Ehrlich ascites carcinoma (EAC) solid tumors. Nature of the experiment: Weight of EAC solid tumors in mice. To be noted: day 21, extract 200 mg/kg PO, compounds 50 mg/kg PO, days 7-21, vs control EAC. The class given is in vivo, Swiss albino female mice. Here is the method: Cells of EAC were purchased from Tumor Biology Department, National Cancer Institute, Cairo University. EAC is a murine spontaneous breast cancer that served as the original tumor from which an ascites variant was obtained. Ascetic fluid was aspired under aseptic conditions from the peritoneal cavity of tumor-bearing mice. The viability and contamination of EAC cells were tested using trypan blue dye exclusion technique. Trypan blue dye stains dead cells only. EAC cells with 90% viability or more were suspended in normal saline (2.5 × 10^6 cells/0.1 mL). The mice were inoculated intradermally with 0.l ml EAC suspension on the lower ventral side after shaving.
as §1, with “Groups (4–9) received (50 mg/kg) of Xanthoxyline, Oleanolic acid, Stigmasterol, Salvigenin, Rhamnetin and Dihydroquercetin 4′-methyl ether, respectively, PO three times daily. All compounds were dissolved in saline.” left out

In brackets after ≈: the same amount, converted by molar mass.

For orientation: IC50 means the concentration that gives 50% inhibition. Higher therefore signals a need for much substance. For `COc1cc(O)c(C(C)=O)c(OC)c1` [Compound 1, 2-hydroxy-4,6-dimethoxyacetophenone], the values for the 50% inhibitory concentration (IC50) in experiment [1] and in experiment [3] were 46 ± 0.28 µg/mL (≈ 234 µM) and 23.5 ± 0.09 µg/mL (≈ 120 µM), respectively. The “serum VEGF-B levels” value in experiment [2] is “nearly normalize VEGF-B levels”.
In the case of `CC[C@H](/C=C/[C@@H](C)[C@H]1CC[C@H]2[C@@H]3CC=C4C[C@@H](O)CC[C@]4(C)[C@H]3CC[C@]12C)C(C)C` [Compound 2, Stigmasterol], the IC50 is greater than 50 µg/mL in experiment [1] and 47 ± 0.06 µg/mL (≈ 114 µM) in experiment [3]. The “serum VEGF-B levels” value in experiment [2] is recorded as “nearly normalize VEGF-B levels”. Besides, the “CD34 expression (immunohistochemistry, stained area)” value (“CD34 expression” below) in experiment [4] was “poor expression of CD34”.
As to `CC1(C)CC[C@]2(C(=O)O)CC[C@]3(C)C(=CC[C@@H]4[C@@]5(C)CC[C@H](O)C(C)(C)[C@@H]5CC[C@]43C)[C@@H]2C1` [Compound 3, Oleanolic acid], the IC50 in experiment [1] is greater than 50 µg/mL; in experiment [3] it was 30 ± 0.14 µg/mL (≈ 65.7 µM). Also, the “VEGFR-2 expression (immunohistochemistry, stained area)” value in experiment [5] is “significantly (p < 0.05) lowered VEGFR-2 expression”.
With `COc1ccc(-c2cc(=O)c3c(O)c(OC)c(OC)cc3o2)cc1` [Compound 4, 5-hydroxy-4’,6,7-trimethoxyflavone], the IC50 is greater than 50 µg/mL in experiment [1] and 18 ± 0.08 µg/mL (≈ 54.8 µM) in experiment [3]. For the same molecule, the “serum VEGF-B levels” value in experiment [2] is listed as “nearly normalize VEGF-B levels”. Moreover, the “CD34 expression” value in experiment [4] is “poor expression of CD34”.
In the case of `COc1cc(O)c2c(=O)c(O)c(-c3ccc(O)c(O)c3)oc2c1` [Compound 5, 5,3’,4’-trihydroxy-7 methoxyflavonol], the tumor weight result in experiment [6] is given as “least tumor weights”. Besides, the IC50 in experiment [1] is greater than 50 µg/mL; in experiment [3], 18.5 ± 0.12 µg/mL (≈ 58.5 µM). Moreover, the “serum VEGF-B levels” value in experiment [2] is “nearly normalize VEGF-B levels”. Also, the “VEGFR-2 expression (immunohistochemistry, stained area)” value in experiment [5] is given as “lowest expression”. In addition, in experiment [4], the “CD34 expression” value is listed as “least expression of CD34”.
In the case of `COc1ccc(C2Oc3cc(O)cc(O)c3C(=O)C2O)cc1O` (stereo not drawn) [Compound 6, dihydroquercetin 4′-methyl ether], in experiment [6], the tumor weight result was “least tumor weights”. Also, the IC50 in experiment [1] was greater than 50 µg/mL; in experiment [3] it was 22.5 ± 0.06 µg/mL (≈ 70.7 µM).
The molecule `COc1cccc2c1C(=O)c1c(O)c3c(c(O)c1C2=O)C[C@@](O)(C(=O)CO)C[C@@H]3O[C@H]1C[C@H](N)[C@H](O)[C@H](C)O1` [Doxo, doxorubicin, reference compound] came in with an IC50 in experiment [1] of 24.9 ± 0.17 µg/mL (≈ 45.8 µM).

For the origin of these results see article PMC8398779, “VEGFR-Mediated Cytotoxic Activity of Pulicaria undulata Isolated Metabolites: A Biological Evaluation and In Silico Study” (Life, 2021).
